# Data: patent US10010559B2, “Use of derivatives containing C-O-P bonds in patients with kidney failure” (LABORATORIOS SANIFIT, S.L., priority 2013, dated 2018)
# Columns and labels:
# [1] = HAP crystallisation induction period (synergy with other treatments); assay type: physicochemical
# Procedure: Objective: to evaluate the potential synergies between the effects of IP6 and the effects of other treatments for renal impairment.
# Experimental: hydroxyapatite (HAP) was crystallised by mixing appropriate concentrations of calcium and phosphate at pH 7.4. The effect of cinacalcet and sevelamer was simulated by suitably modifying the calcium and phosphate concentrations. The induction period (time required for HAP to begin to crystallise) was recorded as the analytical signal.
# [2] = tested on: vit D-induced cardiovascular calcification; assay: Inhibition of vit D-induced (300,000 IU/kg x3) cardiovascular calcification by s.c. IP6; assay type: in vivo, SD rats
# Procedure: Objective: to evaluate the efficacy of s.c. IP6 for inhibiting vit D-induced cardiovascular calcification in rats. Experimental: male SD rats were divided into 9 groups. Two of said groups (sham and control groups) received s.c. saline 2 ml/kg; 6 groups received s.c. […] One group was treated with a s.c. Alzet pump loaded with 200 mg/ml IP6. Calcification was induced by oral administration of 300,000 IU/kg vitamin D (2 ml/kg) for 3 days starting on treatment day 3. […] The calcium content in heart, aorta and kidneys was determined after treatment for 7 days.
# [3] = Calcium chelation by IP6 in vitro; assay type: physicochemical; details: 2.5 mM calcium in 0.15 M NaCl, pH 7.40
# Procedure: Objective: to evaluate the ionic calcium chelation potential of IP6. Experimental: a 2.5 mM of calcium in NaCl 0.15 M, pH 7.40, was pipetted with increasing concentrations of IP6. The amount of free ionic calcium was measured potentiometrically using a calcium-selective electrode and a potentiometer.
# [4] = tested on: tissue calcification in chronic renal impairment model (5/6 nephrectomised rats); assay: 5/6 nephrectomy model, IP6 i.v. bolus; assay type: in vivo, SD rats; details: i.v. bolus 1 or 5 mg/kg, 8 weeks
# Procedure: Objective: to determine the efficacy of intravenous IP6 in the prevention of tissue calcification in a chronic renal impairment model (5/6 nephrectomised rats).
# Experimental: 48 SD rats were 5/6 nephrectomised by complete right lateral nephrectomy and ⅔ partial nephrectomy of the left kidney. 16 animals per group were treated intravenously (bolus) with 2 ml/kg saline, 1 mg/kg IP6 or 5 mg/kg IP6. The animals received a phosphate-rich diet (1% Ca, 1.2% P) containing 20% lactose. After 8 weeks the aorta, heart and remaining ⅓ kidney were collected and the tissue calcium content determined.
# [5] = tested on: vitamin D-induced cardiovascular calcification; assay: Inhibition of vit D-induced (75,000 IU/kg x5) cardiovascular calcification by intravenous IP6; assay type: in vivo, Sprague Dawley (SD) rats
# Procedure: Objective: to evaluate the efficacy of intravenous IP6 in inhibiting vitamin D-induced cardiovascular calcification in rats. Experimental: male Sprague Dawley (SD) rats were divided into 7 groups and IP6 was administered intravenously daily for 14 days at a dose of 0, 0.05, 0.1, 0.5, 1, 5 and 10 mg/kg. Calcification was induced by oral administration of 75,000 IU/kg vitamin D on treatment days 3 to 7. Samples were collected. On day 14 the aortas and hears of the animals were collected to quantify calcification.
# [6] = tested on: serum ionic calcium, ECG and clinical signs; assay: Cardiovascular function after bolus intravenous IP6 in conscious dogs (telemetry); assay type: in vivo
# Procedure: Objective: to examine the effects of a bolus-type administration of IP6 in serum ionic calcium, ECG and clinical signs in dogs. Experimental: 4 male dogs, 2 per dose, were injected with 10, 15 and 30 mg/kg. Two washout days were introduced between the different doses. The ECGs were recorded telemetrically. Blood ionic calcium concentrations were determined on different days to the ECG measurements.
# [7] = PK profile of IP6 s.c. in rats with normal and diminished kidney function; assay type: in vivo, Wistar rats
# Procedure: Objective: to evaluate the PK profile for rats with normal kidney function and renal impairment. Experimental: a single s.c. dose (10 mg/kg) was administered to rats with normal kidney function. Plasma samples were obtained at different timepoints up to 60 minutes. A different group of Wistar rats received oral treatment with adenine 600 mg/kg (p.o.) for 10 days to induce renal impairment. Alpha-calcidol (300 ng/kg) was administered on days 11 and 13 and plasma samples were collected at different timepoints up to 60 minutes on day 14. The plasma IP6 concentrations were quantified for both groups.
# [8] = tested on: tissue calcification in chronic renal impairment model (adenine); assay: Adenine model, bolus-type s.c. IP6; assay type: in vivo, Wistar rats; details: s.c. bolus 3, 10 and 30 mg/kg, 28 days, adenine rats
# Procedure: Objective: to determine the efficacy of IP6 in the prevention of tissue calcification in an animal model of chronic renal impairment (adenine).
# Experimental: CKD was induced in 4 groups (n=12) of male Wistar rats by oral (p.o.) treatment with adenine (600 mg/kg/day) daily for 10 days. After treatment with adenine, the rats received alpha-calcidol at a dose of 300 ng/kg (3×/week, p.o.) until day 28. From day 0 until sacrifice (day 28), the animals were treated with a 2 ml/kg s.c. bolus of 0, 3, 10 and 30 mg/kg IP6. At each treatment, 3 additional animals were included to evaluate the […] for IP6. After 28 days the aorta, heart and right kidney were collected and the tissue calcium content determined.
# [9] = In vitro binding kinetics of IP6 to HAP; details: 130 mg HAP
# Procedure: Objective: to analyse the binding rate of IP6 to HAP.
# Experimental: 130 mg HAP was incubated (in triplicate) with 7.6 μM IP6, at 37° C., pH 7.4, for different time intervals while stirring continuously.
# [10] = tested on: ECG and serum ionic calcium; assay: Cardiovascular function after 2 h intravascular infusion of IP6 in conscious dogs (telemetry); assay type: in vivo; details: for peak IP6 level: dogs
# Procedure: Objective: to determine the effects of a non-bolus type administration of IP6 on the electrocardiogram (ECG) and serum ionic calcium concentrations.
# Experimental: 4 male dogs were treated with 3, 10 and 30 mg/kg IP6 by infusion for 2 h in a Latin square design. A washout period of one week was performed between doses. ECGs were measured telemetrically at 1 h and 20 minutes prior to infusion and 5, 15, 30, 45 minutes, 1, 2, 6 and 24 h post-infusion. In a second stage, blood samples were taken for PK, for the same doses, at 20 minutes prior to infusion and 5, 15, 30 minutes and 1, 1.5, 2, 3 and 6 h post-infusion. In this case the washout period between doses was 2 days. […]
# [11] = In vitro affinity (adsorption) of IP6 for hydroxyapatite; assay type: binding
# Procedure: Objective; the objective of this study is to analyse the affinity of IP6 for the target thereof, thereby obtaining a curve for the affinity of IP6 for HAP.
# […] The total quantity of IP6 bound to the surface of the target (HAP) was quantified.
# To characterise the behaviour of IP6 binding, the EC50 and Emax for the adsorption thereof on HAP were calculated. This was performed using a non-linear regression model (Log [agonist] vs. response−slope variable; GraphPad Prism software).
# [12] = tested on: tissue calcification in uraemic animals; assay: Adenine model, non-bolus intravascular infusion of IP6; assay type: in vivo, Wistar rats
# Procedure: Objective: to determine the efficacy of IP6 as a non-bolus type administration in the prevention of tissue calcification in uraemic animals.
# Experimental: CKD was induced in 2 groups (n=12) of male Wistar rats by oral (p.o.) treatment with adenine (600 mg/kg/day) daily for 10 days. After treatment with adenine, the rats received alpha-calcidol at a dose of 300 ng/kg (3×/week, p.o.) until day 28. From day 0 until sacrifice (day 28), the animals were treated with an intravascular infusion of 50 mg/kg IP6 or saline for 4 hours. After 28 days the aorta and heart were collected and the tissue calcium content determined.
# [13] = Administration of IP6 via the dialysis system (closed circuit, human blood); assay type: in vitro ADME
# Procedure: Objective: to establish the dialysability of IP6 in human blood using a real dialysis system and the effect thereof on calcium chelation.
# Experimental: 1 liter of human blood obtained from patients undergoing therapeutic phlebotomy was introduced into a recipient forming a closed dialysis circuit to simulate a real dialysis. Two experiments were performed (administration pre- and post-dialyser, both in bypass and dialysis mode), administering IP6 to human blood for 20 minutes when outside the recipient (which simulated the animal or human body) and circulating via the dialysis circuit. The recipient containing 1 liter of whole blood at a controlled temperature of 37° C. is connected to the dialysis apparatus to form a closed circuit. The dialysis apparatus will be connected for 1 hour (dialysis fluid flow of 500 ml/min and blood flow of 350 ml/min). Blood samples are collected at different times to determine the IP6 and ionic calcium levels.
# [14] = PK profile of IP6 by 4 h intravenous infusion in normal and uraemic rats; assay type: in vivo, Wistar rats
# Procedure: Objective: to evaluate the PK profile for IP6 in rats with normal kidney function and non-dialysed rats with renal impairment by intravenous infusion.
# Experimental: Wistar rats with normal kidney function were treated daily with a dose of 10 or 50 mg/kg IP6 by intravenous fusion over 4 h. Plasma samples were obtained at different timepoints up to 4 hours on day 0. The animals were then treated orally with 600 mg/kg (p.o.) adenine for 10 days to induce renal impairment. The animals were treated with alpha-calcidol (300 ng/kg) on days 11 and 13 and plasma samples were collected at different timepoints up to 4 hours on day 14. The plasma IP6 levels were quantified for both groups.
# [15] = without IP6, drug effect simulated by modifying calcium and phosphate concentrations
# [16] = i.v. between 1 and 10 mg/kg daily for 14 days
# [17] = normal Wistar rats, s.c. 10 mg/kg
# [18] = intravascular infusion 50 mg/kg for 4 hours, day 0-28, uraemic rats
compound,measurement,setting,value
"C[C@@H](NCCCc1cccc(C(F)(F)F)c1)c1cccc2ccccc12 [cinacalcet, reference compound]",induction period of HAP crystallisation,[1]; [15],14 min
"O=P([O-])([O-])OP(=O)([O-])[O-].[Na+].[Na+].[Na+].[Na+] [pyrophosphate, sodium pyrophosphate, reference compound]",efficacy on calcification,"[2]; s.c., at higher doses than IP6",good efficacy
sevelamer [reference compound],induction period of HAP crystallisation,[1]; [15],15 min
"O=P(O)(O)O[C@H]1[C@H](OP(=O)(O)O)[C@@H](OP(=O)(O)O)[C@H](OP(=O)(O)O)[C@@H](OP(=O)(O)O)[C@H]1OP(=O)(O)O [IP6, inositol hexaphosphate]",IP6 concentration at saturation of calcium chelation,[3],3788 µM
same,IP6 concentration with significant ionic calcium chelation,[3],about 379 μM
same,"calcification inhibition (aorta, heart, remaining kidney)",[4],no evidence of calcification inhibition
same,induction period of HAP crystallisation,"[1]; 11.4 μM IP6, pH 7.4, control 8 minutes",28 min
same,combination effect on induction period,[1]; IP6 0-11.4 μM with simulated cinacalcet or sevelamer,clear synergistic effect
same,effect on mineral content of the aorta and heart,[5]; i.v. 0.05 to 0.5 mg/kg daily for 14 days,did not affect
same,reduction of calcification in aorta,[5]; [16],up to 60%
same,reduction of calcification in heart,[5]; [16],≤ 68%
same,ECG findings,"[6]; i.v. bolus above 15 mg/kg, becoming significant above 30 mg/kg",mild tachycardia and prolonged QTc interval
same,decrease in ionic calcium,"[6]; i.v. bolus, correlated with prolonged QTc",30%
same,efficacy (inhibition of calcification),[2]; s.c. 60 mg/kg,approximately 60%
same,efficacy (inhibition of calcification),[2]; s.c. 100 mg/kg,approximately 60%
same,minimum dose that produced a significant effect on calcification,"[2]; s.c., aorta",10 mg/kg
same,duration of measurable plasma levels,[7]; [17],at least 30 minutes
same,peak plasma concentration,[7]; [17],7.4 µM
same,time of peak concentration post-administration,[7]; [17],15 min
same,metabolites detected,"[7]; plasma, rats","Lower inositol phosphates (IP5, IP4, IP3, IP2, IP1) and inositol"
same,peak plasma concentration,"[7]; uraemic rats (adenine), s.c. 10 mg/kg",1.8 µM
same,"calcification inhibition (aorta, heart, right kidney)",[8],no evidence of calcification inhibition
same,time to adsorption maximum,"[9]; 7.6 μM IP6, 37° C., pH 7.4",60 min
same,fraction of maximum binding achieved,"[9]; after 5 minutes, 7.6 μM IP6",Around 80%
same,peak IP6 level,[10]; 3 mg/kg infusion 2 h,27 µM
same,peak IP6 level,[10]; 10 mg/kg infusion 2 h,150 µM
same,peak IP6 level,[10]; 30 mg/kg infusion 2 h,482 µM
same,"state of health, weight, cardiorespiratory function, ECG, body temperature, total and free potassium in blood","[10]; infusion for 2 h, 3, 10 and 30 mg/kg, any dose",relatively unaffected
same,overall effects on dogs,"[10]; infusion of 3, 10 and 30 mg/kg for 2 h",no negative effects
same,Emax for adsorption on HAP (saturation),[11],6.42 mg/g
same,maximum adsorption of IP6 on the HAP surface,"[11]; 300 mg HAP, 7.6 μM IP6, 8 hours",4.8 mg
same,IP6 concentration at saturation of adsorption on HAP,"[11]; 37° C., pH 7.4",≥ 7.6 µM
same,reduction in average calcification in the aorta,[12]; [18],80%
same,reduction in average calcification in the heart,[12]; [18],85%
same,reduction of plasma IP6 levels by the end of the experiment,"[12]; uraemic rats, due to high metabolic rate",90%
same,dialysability of IP6,[13]; administration via dialysis line for 20 minutes,not lost via the dialysis membrane
same,effect on free calcium,[13]; apparatus in bypass mode,chelates (sequesters) free calcium
same,effect on ionic calcium,[13]; apparatus in dialysis mode,ionic calcium levels are restored
same,peak plasma concentration,"[14]; normal rats, 10 mg/kg i.v. infusion over 4 h",8.4 µM
same,peak plasma concentration,"[14]; normal rats, 50 mg/kg i.v. infusion over 4 h",68.4 µM
same,peak plasma concentration,"[14]; uraemic rats, 10 mg/kg i.v. infusion over 4 h",2.8 µM
same,peak plasma concentration,"[14]; uraemic rats, 50 mg/kg i.v. infusion over 4 h",24.6 µM
same,time approximately constant plasma concentration maintained,"[14]; uraemic rats, 50 mg/kg infusion, from hour 1 to hour 4",3 h
